Measurements reported in patent US11607464B2, “Compositions and methods for the treatment and imaging of cancer” (BOARD OF REGENTS OF THE UNIVERSITY OF NEBRASKA, priority 2018, dated 2023).

What was measured:
NCI 60 cancer cells = experiment: NCI 60 cell five-dose screen; format: cell-based, human; conditions: NCI 60 cell five-dose screen, FIG. 5
Excerpt: FIG. 5 provides the concentrations (nanomole/liter) required to inhibit by 50% growth of cancer cells (GI50) as measured with the National Cancer Institute (NCI) 60 cell five-dose screen assay.
The methodology and data analyses are described in detail at: dtp.cancer.gov/discovery_development/nci-60/methodology.

[1] = Stability in human serum (HPLC); format: in vitro ADME
Description: 4 (370 KBq-740 kBq) in 20 μL 25% EtOH/PB (10 mM PB, pH 6.1) was added to the solution of human serum (1980 μL). The mixture was briefly vortexed and kept up to 19 hours at ambient temperature or in the cell culture incubator (37° C., 5% CO2). At selected times, a 0.5-mL aliquot of the incubated mixture was withdrawn and analyzed by HPLC.
An aliquot of the incubation mixture (0.5 mL) was treated with MeCN (0.5 mL) to precipitate proteins, vortexed and centrifuged (2,000 rpm, 15 minutes). Aliquots of the supernatant (500 μL) were acidified to pH˜6 with 0.05 M TFA (2-8 μL). The excess of MeCN was evaporated with a stream of nitrogen and 100 μL water added. This mixture was passed through a 0.2-μm filter and samples (˜100 μL, 62.5 kBq-130 kBq) were injected on HPLC system.
The HPLC analyses proceeded on Luna C N (5μ, 4.6×250 mm) column. Eluent: solvent A potassium phosphate buffer (10 mM, pH 6.1), solvent B EtOH; all samples were eluted at 0.8 mL/minute, initially with a gradient of EtOH from 30% to 70% for 30 minutes, then from 70% to 95% over the next 15 minutes with detection of radioactivity and UV at 280 nm.

[2] = test system: SK-N-SH neuroblastoma, BE(2)-C neuroblastoma, and U-87 MG glioblastoma; experiment: Survival of neuroblastoma and glioblastoma cells treated with ^131I-4; format: cell-based, human; conditions: 0.185 MBq/mL and 0.35 MBq/mL, FIGS. 9A-9C
Description: FIGS. 9A-9C provide images of SK-N-SH neuroblastoma (FIG. 9A), BE(2)-C neuroblastoma (FIG. 9B), and U-87 MG glioblastoma (FIG. 9C) untreated or treated with compound ^131I-4 at 0.185 MBq/mL and 0.35 MBq/mL. Graphs of the cell uptake and clonogenic survival of the cells are also provided.
The survival of human neuroblastoma and glioblastoma cells either left untreated or treated with compound ^131I-4 at 0.185 MBq/mL and 0.35 MBq/mL was determined. The cell uptake and clonogenic survival of SK-N-SH neuroblastoma, BE(2)-C neuroblastoma, and U-87 MG glioblastoma was also determined (FIGS. 9A-9C).

[3] = Hematocrit and hemoglobin in treated mice; format: in vivo, athymic Ncr nu/nu mice; conditions: terminal necropsy after therapy
Description: (§1) U-87MG cells were injected subcutaneously (SQ) in the dorsal area of the female and male 8-weeks old athymic Ncr nu/nu mice (n=10 per group). When tumor volume reached ˜150 mm^3 mice were randomized into treatment group and “sham” injected control group. The average tumor volumes on day 0 were 177±55 mm^3 and 141±25 mm^3 in the treatment group and untreated controls, respectively. Therapy mice received ^131I-4 at an average dose of 14.5±2.3 MBq/mouse. Tumor volumes and body weights were measured three times per week. When one tumor in control mice exceeded the volume of 3000 mm^3 (i.e., 10% of the body weight), the experiment was terminated. Necropsy was performed. Tumor weights and tumor-associated radioactivity were determined. Blood was collected and hemoglobin and hematocrit values were measured. Tumors sections were also analyzed by macroautoradiography.
The average and median weights of tumor extirpated from untreated control mice (NT) and ^131I-4 treated mice at the terminal necropsy after the therapy was also determined (FIG. 10A). Hematocrit and hemoglobin values in ^131I-4-treated and control (NT) mice were also determined (FIGS. 10B and 10C). FIGS. 10D and 10E also show macroautoradiography of sections of two tumors extirpated.

BE(2)-C cells = experiment: Colony-forming assay, radiotoxicity of ^131I-radiolabeled drug; format: cell-based, human; conditions: for surviving fraction: BE(2)-C
Description: (§2) The cell uptake was tested as a function of the radioactive concentration and time of exposure. With each treatment group, triplicate flasks of controls cells in medium without the radioactive drug were grown and harvested alongside treated cells. Aliquots of the radioactive medium were reserved for gamma counting to assess the initial radioactive concentration. Each treatment was tested in triplicate in at least two independent experiments. Groups of treated cells were cultured in radioactive medium for 1 hour, 24 hours, 48 hours, and 72 hours and either harvested at these times or the radioactive medium was removed and replaced with the appropriate nonradioactive medium and then flasks were returned to the incubator for additional 24 hours. Radioactive medium was collected for radioactivity determination, monolayers were washed with ice-cold PBS. Cells used in the subcellular distribution experiments were harvested by scarping and cell numbers were determined. The subcellular distribution of radioactivity was determined as described before using NE-PER™ nuclear and cytoplasmic extraction reagents (Pierce Biotechnology, Rockford, Ill.).
(§3) Alongside all treatment groups, which included: drug alone (n=4), 4 Gy XRT alone (n=4), and drug+XRT (n=4), quadruplicate flasks of controls cells in medium containing DMSO were grown and harvested under identical culture conditions. Each treatment was tested in at least two independent experiments. The final concentration of DMSO was maintained at 0.5% in all flasks including controls. Cells grown in monolayers (50%-60% confluent) were irradiated at the dose of 4 Gy delivered at the dose rate of 1.36 Gy/minute in a Mark I 68A irradiator (J. L. Shepherd & Associates, San Fernando, Calif.). At designated times after treatment, cells were harvested, their numbers determined and plated at 200 and 500 live cells in duplicate or quadruplicate T25 flasks per each treatment. Cells were left undisturbed for ˜7 days after which time fresh medium was added and colonies were allowed to grow for up to 3 weeks. Colonies were washed with PBS, fixed with methanol, and stained with crystal violet. Briefly, colonies were washed with 5 mL ice-cold PBS, followed by 5 mL PBS/methanol (1:1; v/v), and fixed in 5 mL methanol for 10 minutes. Methanol was removed and flasks were left open to dry for a few hours. Crystal violet (3 mL; 0.25% in 1:1 PBS/methanol) was added to each flask to stain cells. After approximately 10 minutes, the dye was removed, flasks were rinsed with tap water followed by distilled water and were left to dry. Colonies were counted by two independent observers using the ImageJ software.

SK-N-SH cells = experiment: as above; format: cell-based, human; conditions: for surviving fraction: 0.35 MBq/mL
Description: as §2, §3

U-87MG = experiment: Extracellular and intracellular D10 of cells exposed to ^131I-4; format: cell-based, human; conditions: exposed for 48 hours
Description: as §2
(§4) The cell uptake of ^131I-4 was tested as a function of the radioactive concentration and time of exposure. Groups of treated cells—BE(2)-C (neuroblastoma), SK-N-SH cells (neuroblastoma), and U-87 MG (glioblastoma)—were cultured in radioactive medium for 1 hour, 24 hours, 48 hours, and 72 hours.

SK-N-SH = experiment: as above; format: cell-based, human; conditions: exposed for 48 hours
Description: as §2, §4

BE(2)-C = experiment: as above; format: cell-based, human; conditions: exposed for 48 hours
Description: as §2, §4

U-87 MG xenograft = U-87 MG xenograft therapy study in athymic mice; format: in vivo, athymic Ncr nu/nu mice
Description: as §1
U-87MG cells were injected subcutaneously (SQ) in the dorsal area of the female and male 8-weeks old athymic Ncr nu/nu mice (n=10 per group). Therapy mice received ^131I-4 at an average dose of 14.5±2.3 MBq/mouse and tumor volumes and body weights were measured three times per week.

**Q.** With `COC(=O)Nc1nc2ccc(C(=O)c3ccccc3)cc2[nH]1` [Compound 1, methyl N-(6-benzoyl-1H-benzimidazol-2-yl)carbamate] as the compound, how does the “GI50, concentration to inhibit growth of cancer cells by 50%” value (NCI 60 cancer cells) read?
**A.** nanomolar levels

**Q.** What does the source list for `COC(=O)Nc1nc2cc(C(=O)c3cccc([131I])c3)ccc2[nH]1` [^125I-4, Methyl N-[5-(3′-[^125/131I]iodobenzoyl)-1H-benzimidazol-2-yl]carbamate]?
**A.** stability in human serum, radioactive HPLC trace ([1]; 5 hours, 20° C.): exclusively non-degraded; stability in human serum, radioactive HPLC trace ([1]; 17 hours, 37° C.): exclusively non-degraded; stability in human serum ([1]; up to 19 hours): stable

**Q.** Which results are given for `COC(=O)Nc1nc2cc(C(=O)c3cccc([131I])c3)ccc2[nH]1` [^131I-4, Methyl N-[5-(3′-[^125/131I]iodobenzoyl)-1H-benzimidazol-2-yl]carbamate]?
**A.** cytotoxicity, cell survival [2]: cytotoxic to neuroblastoma and glioblastoma cells; adverse reactions in the blood (hematocrit, hemoglobin) [3]: adverse reactions in the blood were not observed; surviving fraction (BE(2)-C cells; 24 hour exposure to 0.35 MBq): 0.51±0.067; surviving fraction (BE(2)-C cells; 48 hour exposure to 0.35 MBq): 0.06±0.02; surviving fraction (BE(2)-C cells; 72 hour exposure to 0.29 MBq): 0.010±0.004; survivors (BE(2)-C cells; at higher concentrations): no survivors; surviving fraction (SK-N-SH cells; 24 hours): 0.68±0.069; surviving fraction (SK-N-SH cells; 48 hours): 0.08±0.04; colonies (SK-N-SH cells; 72 hour exposure): no colonies; D10 extracellular (U-87MG): 0.740 MBq/mL; D10 intracellular (U-87MG): 14,760 (2,550) decays/cell; D10 intracellular (U-87MG; value (std err)): 1.73 (0.34) cpm/cell; D10 extracellular (SK-N-SH): 0.410 MBq/mL; D10 intracellular (SK-N-SH): 7,620 (530) decays/cell; D10 intracellular (SK-N-SH; value (std err)): 0.82 (0.09) cpm/cell; D10 extracellular (BE(2)-C): 0.176 MBq/mL; D10 intracellular (BE(2)-C): 3,010 (395) decays/cell; D10 intracellular (BE(2)-C; value (std err)): 0.36 (0.05) cpm/cell; tumor growth compared to untreated control mice (U-87 MG xenograft; 14.5±2.3 MBq/mouse): dramatically decreases tumor growth; xenograft volume median (U-87 MG xenograft; day 0 after treatment): 122 mm^3; xenograft volume avg (std err) (U-87 MG xenograft; day 0 after treatment, 14.5±2.3 MBq/mouse): 177 (55) mm^3; xenograft volume median (U-87 MG xenograft; day 4 after treatment): 169 mm^3; xenograft volume avg (std err) (U-87 MG xenograft; day 4 after treatment, 14.5±2.3 MBq/mouse): 251 (88) mm^3; xenograft volume median (U-87 MG xenograft; day 7 after treatment): 281 mm^3; xenograft volume avg (std err) (U-87 MG xenograft; day 7 after treatment, 14.5±2.3 MBq/mouse): 277 (76) mm^3; xenograft volume median (U-87 MG xenograft; day 9 after treatment): 292 mm^3; xenograft volume avg (std err) (U-87 MG xenograft; day 9 after treatment, 14.5±2.3 MBq/mouse): 456 (165) mm^3; xenograft volume median (U-87 MG xenograft; day 11 after treatment): 320 mm^3; xenograft volume avg (std err) (U-87 MG xenograft; day 11 after treatment, 14.5±2.3 MBq/mouse): 444 (163) mm^3; tumor infiltration (macroautoradiography) (U-87 MG xenograft; sections of extirpated tumors): infiltrates tumors
